Measured values published in ChEMBL document CHEMBL5614433, “The "Doorstop Pocket" In Thioredoxin Reductases─An Unexpected Druggable Regulator of the Catalytic Machinery” (J Med Chem, 2024).
pIC50: −log10 of the molar value.

Tests used:
[1] = Inhibition of human TrxR1 incubated for 6 hrs in presence of NADPH
[2] = biological target: T1, Thioredoxin glutathione reductase (Schistosoma mansoni) (UniProt Q962Y6); assay: Inhibition of Schistosoma mansoni TGR at 66.7 uM incubated for 6 hrs in presence of NADPH
T1 sequence (whole entry): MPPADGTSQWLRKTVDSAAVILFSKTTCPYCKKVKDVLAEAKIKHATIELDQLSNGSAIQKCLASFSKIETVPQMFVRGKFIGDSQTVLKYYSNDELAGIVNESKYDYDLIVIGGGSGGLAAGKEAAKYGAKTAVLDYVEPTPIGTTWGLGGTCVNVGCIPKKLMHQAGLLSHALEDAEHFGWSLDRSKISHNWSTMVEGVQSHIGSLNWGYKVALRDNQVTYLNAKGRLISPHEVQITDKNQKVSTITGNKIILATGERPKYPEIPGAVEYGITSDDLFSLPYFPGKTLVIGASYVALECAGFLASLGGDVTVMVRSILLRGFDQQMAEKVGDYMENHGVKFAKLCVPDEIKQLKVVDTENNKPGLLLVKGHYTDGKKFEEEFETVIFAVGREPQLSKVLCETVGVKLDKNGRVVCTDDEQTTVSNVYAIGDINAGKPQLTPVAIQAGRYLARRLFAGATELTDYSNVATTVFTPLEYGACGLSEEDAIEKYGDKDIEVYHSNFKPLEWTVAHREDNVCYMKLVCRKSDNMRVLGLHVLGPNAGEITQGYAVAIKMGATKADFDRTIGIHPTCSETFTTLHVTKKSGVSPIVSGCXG

[3] = biological target: T2, Thioredoxin glutathione reductase (Schistosoma mansoni, UniProt Q962Y6); assay: Inhibition of Schistosoma mansoni TGR incubated for 15 mins in presence of NADPH
T2 sequence (Q962Y6 whole entry): T1 sequence (whole entry)

[4] = test system: Schistosoma mansoni; assay: Schistosomicidal-activity against Schistosoma mansoni adult worm measured after 24 hrs; type: functional; conditions: read-out: LD50 (the source's name)
[5] = Inhibition of human TrxR1 incubated for 15 mins in presence of NADPH
[6] = Selectivity ratio of IC50 for human TrxR1 to IC50 for Schistosoma mansoni TGR
[7] = Cytotoxicity against african green monkey Vero cells measured after 24 hrs; type: toxicity, cell-based; conditions: chlorocebus sabaeus, read-out: LD50
[8] = Inhibition of human TrxR1

SMILES	pIC50 [1]	inhibition [2] [%]	other results
Cc1oc(C2CCCCC2)nc1CN[C@@H]1C[C@@H]2C[C@H]([C@H]1C)C2(C)C	< 4.72	28.7	–
C[C@@H]1[C@H]2C[C@@H](C[C@H]1NCc1cn([C@@H]3OC[C@@H](O)[C@H](O)[C@H]3O)c3ccccc13)C2(C)C	–	–	pIC50 [3]: 4.24
C#CCN(Cc1nc(-c2ccccc2)oc1C)C1C[C@@H]2C[C@H]([C@H]1C)C2(C)C (stereo partly drawn)	–	–	LC50 [4]: 15.7 µM; pIC50 [5]: < 4.18; Ratio IC50 [6]: 25; CC50 at 24 h [7]: > 100 µM; pIC50 [3]: 5.60
CCc1ccccc1-c1nc(CN[C@@H]2C[C@@H]3C[C@H]([C@H]2C)C3(C)C)c(C)o1	< 4.72	28.7	–
C[C@@H]1[C@H]2C[C@@H](C[C@H]1NCc1nc3ccccc3n1C1CCCCCC1)C2(C)C	–	–	pIC50 [5]: 5.31
O=C(Nc1ccc(Cl)cc1)c1ccc([N+](=O)[O-])o1	–	–	pIC50 [8]: 5.42

More lines, main results first:

pIC50 [1]	inhibition [2] [%]	SMILES	other results
< 4.72	28.7	Cc1oc(-c2ccc3ccccc3c2)nc1CNC1CCCCCC1	–
< 4.72	28.7	Cc1oc(-c2ccccc2)nc1CN[C@@H]1C[C@@H]2C[C@H]([C@H]1C)C2(C)C	–
< 4.72	28.7	Cc1oc(-c2ccc3c(c2)OCO3)nc1CN[C@@H]1C[C@@H]2C[C@H]([C@H]1C)C2(C)C	–
